Test results from patent US8476265B2, “Compounds-801” (AstraZeneca AB, priority 2010, dated 2013).
pIC50: −log10 of the molar value.

Legend:
[1] = target: T1, human muscarinic acetylcholine M3 receptor (Homo sapiens, UniProt P20309); assay: Muscarinic 3 receptor binding assay ([3H]NMS competition, SPA), single concentration 1 μM; settings: 1 μM compound; % inhibition specific [3H]-NMS binding
T1 construct: expressed in transfected cells; host or cells: CHO-K1 (Chinese Hamster Ovary) cell membranes
Procedure: The following experimental procedure was used to determine the M3% inhibition at 1 μM of the compounds of Examples 99-175
Muscarinic 3 Receptor Binding Assay
The activity (% inhibition specific binding) of compounds on the M3 receptor is determined by competition binding of [^3H]N-methyl scopolamine (NMS) to CHO-K1 (Chinese Hamster Ovary) cell membranes expressing the human muscarinic acetylcholine M3 receptor (M3-ACh) in a scintillation proximity assay (SPA) format. SPA beads are precoated with membranes and then incubated at 2 mg of beads per well with 1 μM compound of the invention, [^3H]NMS at 0.1 nM, quarter Kd (experimentally determined dissociation constant) and assay buffer (20 mM HEPES pH 7.4 containing 5 mM MgCl2 and 0.1% (w/v) bovine serum albumin). The assay is conducted in a final volume of 200 μL, in the presence of 1% (v/v) dimethyl sulphoxide (DMSO). Total binding of [^3H]NMS is determined in the absence of competing compound and non-specific binding of [^3H]NMS is determined in the presence of 1 μM atropine. The plates are incubated for 16 hours at room temperature and then read on Wallac Microbeta™ using a normalised ^3H protocol. The compound activity at 1 μM, defined as % inhibition specific [^3H]-NMS binding, is determined.

[2] = target: T2, Adrenergic β2 (Homo sapiens, UniProt P07550); assay: Adrenergic β2 mediated cAMP production in H292 cells, single concentration 1 μM; assay type: cell-based; settings: NCI-H292, 1 μM compound, cAMP as percentage of the maximum response generated by 1E-07M formoterol, read-out: β2 % effect @1 uM
T2 construct: Adherent H292 cells are removed from tissue culture flasks by treatment with Accutase™ cell detachment solution; endogenous in cells; host or cells: H292 cells
Procedure: The following experimental procedure was used to measure the beta-2% effect at 1 μM for the compounds of Examples 99-175. Adrenergic p2 Mediated cAMP Production Cell Preparation
H292 cells are grown in 225 cm2 flasks incubator at 37° C., 5% CO2 in RPMI medium containing 10% (v/v) FBS (foetal bovine serum) and 2 mM L-glutamine.
Compounds are prepared by an initial first dilution into DMSO to give 1 mM stock concentration. This is followed by a 1 in 10 dilution of the stock concentration (10 μl stock compound +90 μl DMSO) to give 0.1 mM compound. A compound addition plate is prepared by making a further 1 in 25 dilution in assay buffer (HBSS solution containing 10 mM HEPES pH7.4 and 5 mM glucose) containing 4% dimethylsulfoxide. The final compound concentration in assay is 1 μM.
Adherent H292 cells are removed from tissue culture flasks by treatment with Accutase™ cell detachment solution for 15 minutes. Flasks are incubated for 15 minutes in a humidified incubator at 37° C., 5% CO2. Detached cells are re-suspended in RPMI media (containing 10% (v/v) FBS and 2 mM L-glutamine) at 0.1×10^6 cells per mL. 10000 cells in 100 μL are added to each well of a tissue-culture-treated 96-well plate and the cells incubated overnight in a humidified incubator at 37° C., 5% CO2. The culture media is removed and cells are washed twice with 100 μL assay buffer and replaced with 50 μL assay buffer (HBSS solution containing 10 mM HEPES pH7.4 and 5 mM glucose). Cells are rested at room temperature for 20 minutes after which time 25 μL of rolipram (1.2 mM made up in assay buffer) is added. Cells are incubated with rolipram for 10 minutes after which time 25 μl test compounds are added and the cells are incubated for 60 minutes at room temperature. The final rolipram concentration in the assay is 300 μM and final vehicle concentration is 1% (v/v) dimethylsulphoxide. The reaction is stopped by removing supernatants, washing once with 100 μL assay buffer and replacing with 50 μL lysis buffer. The cell monolayer is frozen at −80° C. for 30 minutes (or overnight).
AlphaScreen™ cAMP Detection
The concentration of cAMP (cyclic adenosine monophosphate) in the cell lysate is determined using AlphaScreen™ methodology. The frozen cell plate is thawed for 20 minutes on a plate shaker then 10 μL of the cell lysate is transferred to a 96-well white plate. 40 μl of mixed AlphaScreen™ detection beads (containing equal volumes of donor beads (pre-incubated with biotinylated cAMP in the dark for 30 minutes) and acceptor beads is added to each well and the plate incubated at room temperature for 3 hours in the dark. The AlphaScreen™ signal is measured using an EnVision spectrophotometer (Perkin-Elmer Inc.) with the recommended manufacturer's settings. Concentration of cAMP produced per well were calculated with reference to the cAMP standard curve determined in the same experiment and expressed as a percentage of the maximum response generated by 1E-07M formoterol.

[3] = target: T1, human muscarinic acetylcholine M3 receptor; assay: Muscarinic 3 receptor binding assay ([3H]NMS competition, SPA), pIC50; settings: [3H]NMS 0.1 nM, CHO-K1 cell membranes expressing human M3 receptor
In short: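 Competition of [3H]NMS (0.1 nM, quarter Kd) binding to CHO-K1 membranes expressing human M3, SPA format, in 20 mM HEPES pH 7.4, 5 mM MgCl2, 0.1% BSA, 1% DMSO. Incubated 16 h at room temperature; non-specific binding with 1 μM atropine; pIC50 from specific binding.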

[4] = target: T2, Adrenergic β2; assay: Adrenergic β2 mediated cAMP production in H292 cells (AlphaScreen), concentration response; assay type: cell-based; settings: for EC50: 60 min, 300 μM rolipram, read-out: β2 pEC50 (converted); for β2 Intrinsic Activity: fraction relative to the maximum activity determined for formoterol
In short: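 H292 cells seeded overnight, pretreated 10 min with rolipram (300 μM final), then exposed to compounds 60 min at room temperature in HBSS/10 mM HEPES pH 7.4/5 mM glucose, 1% DMSO. Lysate cAMP quantified by AlphaScreen against a standard curve; four-parameter fit gives pEC50 and intrinsic activity relative to formoterol maximum.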

T2 sequence (P07550 whole entry): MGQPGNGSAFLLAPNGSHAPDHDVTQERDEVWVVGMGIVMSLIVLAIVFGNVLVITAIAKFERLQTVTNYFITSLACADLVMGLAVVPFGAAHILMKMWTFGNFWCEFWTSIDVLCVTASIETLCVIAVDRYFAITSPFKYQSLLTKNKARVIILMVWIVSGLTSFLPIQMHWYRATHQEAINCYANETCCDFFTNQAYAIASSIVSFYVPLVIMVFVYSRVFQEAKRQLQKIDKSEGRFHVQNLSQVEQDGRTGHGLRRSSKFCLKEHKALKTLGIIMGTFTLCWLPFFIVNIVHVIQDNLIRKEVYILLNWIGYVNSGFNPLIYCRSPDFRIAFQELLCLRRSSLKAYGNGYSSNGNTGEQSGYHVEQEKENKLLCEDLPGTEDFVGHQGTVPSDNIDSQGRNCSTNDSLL
T1 sequence (P20309 whole entry): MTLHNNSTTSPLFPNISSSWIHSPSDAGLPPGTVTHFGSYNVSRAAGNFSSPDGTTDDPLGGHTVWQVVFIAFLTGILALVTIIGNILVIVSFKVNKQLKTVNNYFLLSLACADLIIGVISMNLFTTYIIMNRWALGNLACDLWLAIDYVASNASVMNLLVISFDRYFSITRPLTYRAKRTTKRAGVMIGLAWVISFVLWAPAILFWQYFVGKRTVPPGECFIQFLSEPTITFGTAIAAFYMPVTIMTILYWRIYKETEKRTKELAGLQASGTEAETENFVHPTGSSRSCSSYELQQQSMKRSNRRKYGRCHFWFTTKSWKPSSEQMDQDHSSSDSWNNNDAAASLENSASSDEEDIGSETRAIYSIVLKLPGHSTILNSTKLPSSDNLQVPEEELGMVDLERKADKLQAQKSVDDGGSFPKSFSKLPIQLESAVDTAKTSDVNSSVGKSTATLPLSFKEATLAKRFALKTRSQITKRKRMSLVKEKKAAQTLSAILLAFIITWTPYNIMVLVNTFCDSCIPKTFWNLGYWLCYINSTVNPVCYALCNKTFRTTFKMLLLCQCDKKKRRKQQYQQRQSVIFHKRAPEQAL

| SMILES | inhibition at 1 µM [1] | percent of formoterol maximum response at 1 µM [2] | pIC50 [3] | EC50 [4] | β2 Intrinsic Activity [4] |
| --- | --- | --- | --- | --- | --- |
| COC(C(=O)N1CCOC2(CCN(Cc3cccc(CCOCCC(=O)N(CCNCCc4ccc(O)c5c4OCC(=O)N5)C4CCCCC4)c3)CC2)C1)c1ccccc1 (centres unmarked) [Example 171, N-Cyclohexyl-N-(2-(2-(5-hydroxy-3-oxo-3,4-dihydro-2H-benzo[b][1,4]oxazin-8-yl)ethylamino)ethyl)-3-(3-((4-(2-methoxy-2-phenylacetyl)-1-oxa-4,9-diazaspiro[5.5]undecan-9-yl)methyl)phenethoxy)propanamide] | 96% | 94% | – | – | – |
| O=C1COc2c(CCNCCN(C(=O)CCOCCc3cccc(CN4CCC5(CC4)CN(C(=O)Cn4cnc6ccccc64)CCO5)c3)C3CCCCC3)ccc(O)c2N1 [Example 125, 3-(3-((4-(2-(1H-Benzo[d]imidazol-1-yl)acetyl)-1-oxa-4,9-diazaspiro[5.5]undecan-9-yl)methyl)phenethoxy)-N-cyclohexyl-N-(2-(2-(5-hydroxy-3-oxo-3,4-dihydro-2H-benzo[b][1,4]oxazin-8-yl)ethylamino)ethyl)propanamide] | 93% | 114% | – | – | – |
| O=C1COc2c(CCNCCN(C(=O)CCOCCc3cccc(CN4CCC5(CC4)CN(C(=O)c4cnc(-c6ccccc6)[nH]4)CCO5)c3)C3CCCCC3)ccc(O)c2N1 [Example 145, N-Cyclohexyl-N-(2-(2-(5-hydroxy-3-oxo-3,4-dihydro-2H-benzo[b][1,4]oxazin-8-yl)ethylamino)ethyl)-3-(3-((4-(2-phenyl-1H-imidazole-5-carbonyl)-1-oxa-4,9-diazaspiro[5.5]undecan-9-yl)methyl)phenethoxy)propanamide] | 90% | 117% | – | – | – |
| Cc1cc2ncc(C(=O)N3CCOC4(CCN(Cc5cccc(CCOCCC(=O)N(CCNCCc6ccc(O)c7c6OCC(=O)N7)C6CCCCC6)c5)CC4)C3)c(C)n2n1 [Example 108, N-Cyclohexyl-3-(3-((4-(2,7-dimethylpyrazolo[1,5-a]pyrimidine-6-carbonyl)-1-oxa-4,9-diazaspiro[5.5]undecan-9-yl)methyl)phenethoxy)-N-(2-(2-(5-hydroxy-3-oxo-3,4-dihydro-2H-benzo[b][1,4]oxazin-8-yl)ethylamino)ethyl)propanamide] | 80% | 98% | – | – | – |
| CCN(CCNCCc1ccc(O)c2[nH]c(=O)sc12)C(=O)CCOCCCc1cccc(CN2CCC3(CC2)CN(C(=O)c2csc(C(C)C)n2)CCO3)c1F [Example 66, N-Ethyl-3-(3-(2-fluoro-3-((4-(2-isopropylthiazole-4-carbonyl)-1-oxa-4,9-diazaspiro[5.5]undecan-9-yl)methyl)phenyl)propoxy)-N-(2-(2-(4-hydroxy-2-oxo-2,3-dihydrobenzo[d]thiazol-7-yl)ethylamino)ethyl)propanamide ditrifluoroacetate] | – | – | 9.30 | 251 nM | 0.5 |
| Cc1ccccc1CN(CCNCCc1ccc(O)c2c1OCC(=O)N2)C(=O)CCOCCc1cccc(CN2CCC3(CC2)CN(C(=O)c2csc(C(C)C)n2)CCO3)c1F [Example 21, 3-(2-Fluoro-3-((4-(2-isopropylthiazole-4-carbonyl)-1-oxa-4,9-diazaspiro[5.5]undecan-9-yl)methyl)phenethoxy)-N-(2-(2-(5-hydroxy-3-oxo-3,4-dihydro-2H-benzo[1)][1,4]oxazin-8-yl)ethylamino)ethyl)-N-(2-methylbenzyl)propanamide ditrifluoroacetate] | – | – | 9.50 | 63.1 nM | 1.1 |
| O=C1COc2c(CCNCCN(C(=O)CCOCCc3cccc(CN4CCC5(CC4)CN(C(=O)c4ccc6occc6c4)CCO5)c3)C3CCCCC3)ccc(O)c2N1 [Example 84, 3-(3-((4-(Benzofuran-5-carbonyl)-1-oxa-4,9-diazaspiro[5.5]undecan-9-yl)methyl)phenethoxy)-N-cyclohexyl-N-(2-(2-(5-hydroxy-3-oxo-3,4-dihydro-2H-benzo[b][1,4]oxazin-8-yl)ethylamino)ethyl)propanamide] | – | – | 9.70 | 200 nM | 1.0 |
| Cc1nc(C(=O)N2CCOC3(CCN(Cc4cccc(CCOCCC(=O)N(CCNCCc5ccc(O)c6[nH]c(=O)ccc56)C5CCCCC5)c4)CC3)C2)cs1 [Example 42, N-Cyclohexyl-N-(2-(2-(8-hydroxy-2-oxo-1,2-dihydroquinolin-5-yl)ethylamino)ethyl)-3-(3-((4-(2-methylthiazole-4-carbonyl)-1-oxa-4,9-diazaspiro[5.5]undecan-9-yl)methyl)phenethoxy)propanamide ditrifluoroacetate] | – | – | > 10.50 | 398 nM | 1.0 |
| CC(C)c1nc(C(=O)N2CCOC3(CCN(Cc4cccc(COCCOCCC(=O)N(CCNCCc5ccc(O)c6c5OCC(=O)N6)C5CCCCC5)c4)CC3)C2)cs1 [Example 67, N-Cyclohexyl-N-(2-(2-(5-hydroxy-3-oxo-3,4-dihydro-2H-benzo[b][1,4]oxazin-8-yl)ethylamino)ethyl)-3-(2-(3-((4-(2-isopropylthiazole-4-carbonyl)-1-oxa-4,9-diazaspiro[5.5]undecan-9-yl)methyl)benzyloxy)ethoxy)propanamide ditrifluoroacetate] | – | – | 9.60 | 31.6 nM | 0.8 |
| CC(C)c1nc(C(=O)N2CCOC3(CCN(Cc4cc(F)cc(CCOCCC(=O)N(CCNCCc5ccc(O)c6c5OCC(=O)N6)C5CCCCC5)c4)CC3)C2)cs1 [Example 47, N-Cyclohexyl-3-(3-fluoro-5-((4-(2-isopropylthiazole-4-carbonyl)-1-oxa-4,9-diazaspiro[5.5]undecan-9-yl)methyl)phenethoxy)-N-(2-(2-(5-hydroxy-3-oxo-3,4-dihydro-2H-benzo[b][1,4]oxazin-8-yl)ethylamino)ethyl)propanamide ditrifluoroacetate] | – | – | 9.40 | 63.1 nM | 0.9 |
